Where two headings read alike, the source gives them in different places.
Key:
[1] = design: method as in UFZ-LSER database; conditions: hydrogen bonding parameter B; ref UFZ-LSER database; cited from earlier work
[2] = IS-RPLC retention on silica-based C18 column, logkw by linear solvent strength model; assay type: physicochemical
Protocol: (§1) The retention behavior of the 42 basic compounds (Table 1) were investigated at different ratios of methanol (φ = 0.7–0.1, the interval was 0.1 or 0.05 based on the retention of the investigated solutes). The logk values were plotted versus φ for each solute at pH 7.0, pH 8.0, pH 9.0, and pH 10.0. […] The logD values of the model compounds and verification compounds calculated using Equation (S3) based on the logP and pH values are also listed in Table 1.
The column temperature was set at 30 °C. Methanol and 20 mmol/L ammonium phosphate buffer (pH = 7.0, 8.0, 9.0, 10.0) was used as the mobile phase to perform isocratic elution. The injection volume was 10 µL and the detection wavelength for each eluted compound was set at its optimum absorption wavelength.
(§2) At each pH, the retention time (tR) of every analyte was determined for at least four different volume fractions (φ) of methanol. All the tR values of the solutes were obtained by averaging the results of at least three independent injections. The tR value was corrected using dual-point retention time correction (DP-RTC). For a detailed description of the process, refer to our previous work. For the different hydrophobicities of the studied compounds, benzene, toluene, and benzyl alcohol were used as anchor compounds in the DP-RTC method. The dead time t0 was determined using uracil. For each solute, the logarithm of k was plotted against φ, and logkw was obtained using the Equation (S1). The logD values of the model compounds were calculated using Equation (S3), and the logD–logkw models were established with Equation (S4). The statistical analysis for the regression model was accomplished using Origin 9.4. […]
(§3) Where, k is the capacity factor, φ is the volume fraction of organic modifier in the mobile phase, and S is the constant obtained by linear regression in the equations. […]
The Eqs. (S1) and (S2) are the basis for the determination of logP by revered- phase liquid chromatography (RPLC) method. For dissociative solutes, it has been confirmed by many studies that the logD calibrated from logP has a better linear correlation with logkw than logP. […]

[3] = ref database module of ACD/Labs software; cited from earlier work
[4] = Text: as §1, §2, §3
and logkw, which is usually called Collander equation [25 ]. lo g lo g wPm k n= + (S2)
Where, m and n are constants obtained by linear regression.
The Eqs. (S1) and (S2) are the basis for the determination of logP by revered- phase liquid chromatography (RPLC) method. For dissociative solutes, it has been confirmed by many studies that the logD calibrated from logP has a better linear correlation with logkw than logP.
For basic compounds, the logD value can be calibrated from Eq. (S3), and the Collander equation can be rewritten into Eq. (S4). log log( )D − −+ −+= + ++P […]
lo g ' lo g 'Dm k n= +w (S4)
Where, pKa1, pKa2 , … p Kan are the dissociation constants of basic compounds of corresponding acids in the mobile phase, pH is the pH value of mobile phase, m′ and n′ are fitting parameters. Han et al. pointed out that although mobile phase pH and pKa of solutes will change along with the varied organic modifier fraction, the difference between a couple of relevant pH and pKa is a constant. Therefore, the used pH and pKa in this paper were both the values obtained at 100% aqueous phase. […]

[5] = ref database module of ACD/Labs software, cited from earlier work
[6] = physchem
Protocol: Multi-parameter QSRR models including logD, logkw, ne, A, and B were established using the multiple linear regression (MLR) method. In the process of linear fitting, ne, A, B, and their different combinations were introduced to optimize the models.
The logD values reported in the literature for these four compounds were calculated using Equation (S3) with corresponding pKa, logP, and pH values.
At each pH, the retention time (tR) of every analyte was determined for at least four different volume fractions (φ) of methanol. All the tR values of the solutes were obtained by averaging the results of at least three independent injections. The tR value was corrected using dual-point retention time correction (DP-RTC). For a detailed description of the process, refer to our previous work. For the different hydrophobicities of the studied compounds, benzene, toluene, and benzyl alcohol were used as anchor compounds in the DP-RTC method. The dead time t0 was determined using uracil. For each solute, the logarithm of k was plotted against φ, and logkw was obtained using the Equation (S1). The logD values of the model compounds were calculated using Equation (S3), and the logD–logkw models were established with Equation (S4). The statistical analysis for the regression model was accomplished using Origin 9.4.

[7] = pH 8.0, calculated with literature logP, pKa and pH, Equation (S3)
[8] = pH 7.0, calculated with literature logP, pKa and pH, Equation (S3)
[9] = pH 9.0, calculated with literature logP, pKa and pH, Equation (S3)
[10] = pH 10.0, calculated with literature logP, pKa and pH, Equation (S3)
[11] = pH 7.0, methanol/20 mmol/L ammonium phosphate buffer, Welch Xtimate C18, 30 °C, 100% aqueous extrapolation
[12] = pH 8.0, methanol/20 mmol/L ammonium phosphate buffer, Welch Xtimate C18, 30 °C, 100% aqueous extrapolation
[13] = pH 9.0, methanol/20 mmol/L ammonium phosphate buffer, Welch Xtimate C18, 30 °C, 100% aqueous extrapolation
[14] = pH 10.0, methanol/20 mmol/L ammonium phosphate buffer, Welch Xtimate C18, 30 °C, 100% aqueous extrapolation

Row | SMILES | B [1] | logkw-pH 7.0 ([2]; pH 7) | logkw-pH 8.0 ([2]; pH 8) | logkw-pH 9.0 ([2]; pH 9) | logkw-pH 10.0 ([2]; pH 10) | pKa1 [3] | logDpH 7.0 ([4]; pH 7) | logDpH 9.0 ([4]; pH 9) | logDpH 10.0 ([4]; pH 10) | logP ([5]; n-octanol/water) | logDpH 8.0 ([4]; pH 8) | logkw-pH 7.0 [2, 11] | logkw-pH 8.0 [2, 12] | logkw-pH 9.0 [2, 13] | logkw-pH 10.0 [2, 14] | further results
1 | CN(C)c1ccccc1 [N, N-Dimethylaniline] | 0.96 | 2.18 | 2.37 | 2.39 | 2.44 | 5.07 |  |  |  |  |  |  |  |  |  | 
2 | COc1ccc(N)cc1 [4-Methoxyaniline] | 1.05 | 1.05 | 0.99 | 1.07 | 1.11 | 5.36 | 0.79 | 0.80 | 0.80 | 0.80 |  |  |  |  |  | logDpH 8.0 [4, 7]: 0.80
3 | COc1ccccc1N [2-Methoxyaniline] | 0.99 | 1.38 | 1.41 | 1.42 | 1.49 | 4.53 | 0.95 | 0.95 | 0.95 | 0.95 | 0.95 |  |  |  |  | 
4 | Cc1ccnc(N)c1 [2-Amino-4-methylpyridine] | 0.95 |  |  |  |  | 7.38 |  |  |  | 0.89 |  | 1.00 | 1.16 | 1.28 | 1.32 | logDpH 7.0 [4, 8]: 0.36; logDpH 8.0 [4, 7]: 0.80; logDpH 9.0 [4, 9]: 0.88; logDpH 10.0 [4, 10]: 0.89
5 | Cc1cccc(C)n1 [2,6-Dimethylpyridine] | 0.61 |  |  |  |  | 6.65 | 1.52 | 1.68 | 1.68 | 1.68 | 1.66 | 1.68 | 1.76 | 1.78 | 1.81 | 
6 | NCc1ccccc1 [Benzylamine] |  |  |  |  |  | 9.35 |  |  |  |  |  | 0.36 | 0.49 | 1.05 | 1.42 | 
7 | CCc1ccccc1N [2-Ethylaniline] | 0.96 |  |  |  |  |  | 1.63 | 1.67 | 1.67 |  | 1.67 | 1.87 | 1.94 | 1.95 | 1.95 | chromatographic logD ([6]; pH 7): 1.79; chromatographic logD ([6]; pH 8): 1.77; chromatographic logD ([6]; pH 9): 1.75; chromatographic logD ([6]; pH 10): 1.71
8 | Cc1cc(C)nc(C)c1 [2,4,6-Trimethylpyridine] | 0.63 |  |  |  |  |  | 1.44 | 2.00 |  | 2.01 | 1.91 | 2.06 | 2.23 | 2.30 | 2.34 | logDpH 10.0 [4, 10]: 2.01
9 | Cc1ccccc1N [2-Methylaniline] | 0.97 | 1.47 | 1.44 | 1.45 | 1.49 |  | 1.40 | 1.40 | 1.40 | 1.40 | 1.40 |  |  |  |  | 
10 | CCOc1ccc(N)cc1 [4-Ethoxyaniline] | 0.95 | 1.45 | 1.49 | 1.50 | 1.60 |  | 1.23 | 1.24 | 1.24 | 1.24 | 1.24 |  |  |  |  | 
11 | CCc1ccccn1 [2-Ethylpyridine] | 0.61 |  |  |  |  |  |  |  |  | 1.67 |  | 1.74 | 1.79 | 1.80 | 1.90 | logDpH 7.0 [4, 8]: 2.05; logDpH 8.0 [4, 7]: 2.05; logDpH 9.0 [4, 9]: 2.05; logDpH 10.0 [4, 10]: 2.05; chromatographic logD ([6]; IS-RPLC retention (logkw), pH 7): 1.62; chromatographic logD ([6]; IS-RPLC retention (logkw), pH 8): 1.62; chromatographic logD ([6]; IS-RPLC retention (logkw), pH 9): 1.6; chromatographic logD ([6]; IS-RPLC retention (logkw), pH 10): 1.65; logP ([5]; Table 4, verification compounds): 1.67

Source: article PMC10005301, “Prediction of the n-Octanol/Water Partition Coefficients of Basic Compounds Using Multi-Parameter QSRR Models Based on IS-RPLC Retention Behavior in a Wide pH Range” (Molecules, 2023)
